# Measurements taken from PubChem BioAssay (NCI).
#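 These data come from cells grown in 96-well plates and exposed to compound for 48 hours at five concentrations. Definition used: TGI = concentration required for complete inhibition of growth.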
# What was measured:
# Assay in all cases: NCI tumour cell line growth inhibition, 48 h
# SNB-78 CNS = tested on: SNB-78 CNS
# SK-MEL-2 melanoma = tested on: SK-MEL-2 melanoma
# M19-MEL melanoma = tested on: M19-MEL melanoma
# U251 CNS = tested on: U251 CNS
# OVCAR-4 ovarian = tested on: OVCAR-4 ovarian
# CCRF-CEM leukemia = tested on: CCRF-CEM leukemia
# HT29 colon = tested on: HT29 colon
# SNB-19 CNS = tested on: SNB-19 CNS
Compound,TGI (SNB-78 CNS) [µM],TGI (SK-MEL-2 melanoma) [µM],TGI (M19-MEL melanoma) [µM],TGI (U251 CNS) [µM],TGI (OVCAR-4 ovarian) [µM],TGI (CCRF-CEM leukemia) [µM],TGI (HT29 colon) [µM],TGI (SNB-19 CNS) [µM]
CN(C)CC1CCC/C1=N\O (centres undefined),> 100,> 100,> 100,> 100,> 100,> 100,> 100,
COC1C2C=CC(C2)[C@H]1[N+](=O)[O-] (some centres undefined),> 100,> 100,> 100,> 100,> 100,> 100,> 100,> 100
C[C@]12CCCC(=O)C1(O)C[C@H](C(=O)O)CC2 (some centres undefined),,> 100,> 100,> 100,> 100,> 100,> 100,> 100
Cc1cc(C)c(C(=O)c2no[n+]([O-])c2C(=O)c2c(C)cc(C)c(Br)c2C)c(C)c1Br,70.8,30.9,25.7,25,50,8.88,27.4,29.1
CCOP(=O)(OCC)OC(C#N)c1ccc(-c2ccccc2)cc1 (centres undefined),> 100,> 100,50.3,28.9,36.6,49.7,34.3,> 100
O=C(N/N=C(/CCN1CCCC1)CC(c1ccccc1)c1c(O)c2ccccc2oc1=O)c1ccncc1 (centres undefined),> 100,> 100,> 100,> 100,> 100,> 100,> 100,> 100
CC[C@]1(O)C(=O)OCc2c1cc1n(c2=O)Cc2cc3c(N)cccc3nc2-1,,> 100,> 100,> 100,> 100,> 100,> 100,> 100
COC(=O)[C@]12CCC(C)[C@H](C)[C@H]1C1=CCC3[C@@]4(C)CC[C@H](OC(C)=O)C(C)(C)C4CC[C@@]3(C)C1(C)C(O)C2 (some centres undefined),> 100,> 100,> 100,> 100,> 100,> 100,> 100,> 100
CCCCN(CCCC)c1c([N+](=O)[O-])c(=O)nc2ccccn12,> 100,> 100,> 100,> 100,,> 100,> 100,> 100
CC(=O)NC(CCCCNC(=O)NCCCl)C(=O)NCc1ccccc1 (centres undefined),,> 100,> 100,> 100,> 100,> 100,> 100,> 100
COc1ccc(/C=C\c2cc(OC)c(O[Si](C)(C)C(C)(C)C)c(OC)c2)cc1,,65.2,> 100,42.2,> 100,49.8,> 100,> 100
CC(=O)OCC(OC(C)=O)C(OC(C)=O)C(OC(C)=O)C(=O)CNn1c(-c2ccccc2Cl)nc2ccccc2c1=O (centres undefined),> 100,> 100,> 100,> 100,> 100,> 100,> 100,> 100
COC1OC(CO)C(O)C1N (centres undefined),> 100,,,> 100,> 100,> 100,> 100,> 100
CN(C)/N=C(/c1nc2ccc(Cl)cc2[nH]c1=O)C(O)c1ccc(C(O)/C(=N\N(C)C)c2nc3ccc(Cl)cc3[nH]c2=O)cc1 (centres undefined),,> 100,> 100,,> 100,> 100,> 100,> 100
O=C(c1ccncc1)n1nc(-c2ccccc2)c(N=Nc2ccccc2[N+](=O)[O-])c1-c1ccccc1,> 100,> 100,> 100,,> 100,> 100,> 100,> 100
Cc1ccccc1C1=C(C(=O)Nc2ccc(Cl)c(Cl)c2)NC(=S)NC1N (centres undefined),> 100,> 100,> 100,> 100,> 100,> 100,> 100,> 100
COC(=O)C(=O)C(C(=O)C(=O)Nc1cccc(C(C)=O)c1)c1nc2ccccc2[nH]c1=O (centres undefined),,> 100,> 100,,> 100,> 100,> 100,> 100
CCOC(=O)c1cc(/C=C/C(C)=C/C(=O)OC)oc1C,> 100,> 100,> 100,> 100,> 100,> 100,> 100,> 100
Cc1cccc(C)c1NC(=O)C1C(=O)N(c2c(C)cccc2C)C(=O)/C1=N\NC(N)=S (centres undefined),> 100,> 100,> 100,> 100,> 100,> 100,> 100,> 100
